From patent US6046231A, “Use of 4'-bromoflavone in a cancer chemopreventative composition and method” (The Board of Trustees of the University of Illinois, priority 1999, dated 2000)
“Also recorded” adds a separate entry of the source.

How the values were obtained:
[1] = tested on: DMBA-induced mammary tumors; assay: Inhibition of DMBA-induced mammary carcinogenesis in rats; format: in vivo, female Sprague Dawley rat; conditions: for tumor multiplicity (FIG. 9): control 2.63; for mammary tumor multiplicity: control 2.75; for mammary tumor incidence: control 88.9%; for tumor incidence (FIG. 9): control 89.5
Method: Inhibition of DMBA-induced Mammary Carcinogensis in Rats. On the basis of a 3-week feeding study, maximum tolerated doses were evaluated, and suitable doses were selected for the study of inhibition of DMBA-induced mammary carcinogenesis in rats. Virgin, female Sprague Dawley rats were obtained from Harlan/Sprague-Dawley at 35 days of age. All animals were placed on a diet of Teklad 4% Rat/Mouse chow at this time. After a quarantine period of 1 week, at 42 days of age, the animals were randomized by weight into six groups and placed on the appropriate experimental diet containing 2000 and 4000 mg 4'-bromoflavone/kg diet. At 50 days of age, the animals received a single i.g. dose of 15 mg of DMBA in sesame oil (or vehicle only) following an overnight fast. The rats were maintained on the 4'-bromoflavone diet for one additional week, and then returned to the basal diet without test agent at 57 days of age. During the experiment, all animals were weighed weekly. Palpation for mammary tumors began 3 weeks after the animals received the DMBA, and continued until termination of the study (120 days post DMBA). The date of appearance and location of all tumors was recorded. Animals were observed twice daily to assess their general health. Moribund animals were sacrificed by CO2 asphyxiation. Moribund animals or animals found dead were necropsied immediately. At the termination of the experiment, all mammary tumors were excised and weighed, and mean tumor weight was established. Tumors for Group 2-5 were frozen. The abdominal/inguinal glands of Group 8 were disected free of lymph nodes; one side was frozen, the other side was fixed. Incidence was evaluated with Fisher's exact test and the Logrank test was used for tumor incidence rate. Tumor multiplicity was calculated using Armitage's test for trends in proportions. Latency and tumor weight were evaluated by an unpaired t-test. Survival was analyzed with log-rank analysis.
Inhibition of DMBA-induced Mammary Tumor Carcinogenesis in Rat. Maximum dose tolerance (MDT) studies (data not included) were performed prior to conducting the chemopreventative studies of 4'-BF in animals. Briefly, a test agent was examined in a three-week study to determine the maximum dose that can be administered without causing suppression of body weight gain or inducing other gross manifestations of toxicity and to determine the effective dose in term of induction of phase II detoxifying enzymes. According to the MDT study, two doses of 4'-BF (2000 and 4000 mg/kg diet) were used for the chemopreventative studies.

cytochrome P4501A1 = assay: Effect on DMBA-induced cytochrome P4501A1 activity in rat tissues; format: in vivo, Sprague Dawley rat
Method: At 43 days of age, Sprague Dawley rats were placed on various experimental diets (Table 1) for 1 week prior to administration of a single (i.g.) dose of DMBA (15 mg). Animals then were weighed and sacrificed by CO2 asphyxiation. Tissues (livers and mammary glands) were collected, rinsed with saline, frozen in liquid nitrogen, and stored at -80° C. until analysis. Individual tissues were homogenized in 0.05 M Tris-HCl buffer (pH 7.5) containing 0.25 M sucrose. Cytosolic and microsomal fractions were obtained through differential centrifugation. Dicumarol-sensitive QR activity was measured as described above using 50 μl of suitably diluted cytosol supernatants (in duplicate). Cytochrome P4501A1-mediated EROD activities were determined as described previously in R. Poul et al. Anal. Biochem., 107, pp. 265-275 (1980) and S. Sharma et al., Cancer Res., 54, pp. 5848-5844 (1994), with slight modifications using suitably diluted microsomal protein. Enzyme activities were expressed as nmol/mg protein/min. Protein content was determined using Bradford reagent with BSA as standard, and data were presented as mean ±SE and analyzed using Student's t test (n=5).

glutathione (GSH) = assay: Induction of glutathione (GSH) in mouse liver and mammary glands (Table 3); format: in vivo
[2] = tested on: QR mRNA, Hepa 1c1c7 cells; assay: RT-PCR of QR mRNA in Hepa 1c1c7 cells; format: cell-based, murine
Method: RT-PCR Analysis of QR mRNA Expression. Primers were designed based on rat QR gene and custom synthesis. Total RNA was isolated from cultured Hepa 1c1c7 cells with TRIzol® reagent (Life Technologies, Inc.) and quantified using a UV-spectrometer. The reverse transcription of RNA was performed in a final volume of 20 μl containing 5× First Straind Synthesis Buffer (Life Technologies, Inc.), 5 mM MgCl2, 1 mM of each dNTPs, 1 unit Rnase inhibitor (Life Technologies, Inc.), 2.5 units SuperScript II reverse transcriptase (Life Technologies, Inc.), 2.5 μM oligo (dT)16, 0.2 μg total RNA, and DEPC-treated water. After incubation at 47° C. for 30 min, the RT-reaction was terminated by heating to 70° C. for 15 minutes. To the newly synthesized cDNA (1 μL), a PCR reaction mixture (Advantage KlenTaq polymerase Mix, CloneTech) containing 3 mM MgCl2, 2.5 units Taq polymerase, 6 pmol of primers for QR gene (5'-[…]-3'; and 3 pmol of primers for β-actin, 5'-[…]-3'), (5'-[…]-3'; 5'-[…]-3') as internal control was added to bring the final volume to 50 μl. The PCR reaction was heated to 94° C. for 1 min and immediately cycled 27 times through a 30 second denaturing step at 94° C., a 45 second annealing step at 55° C., a 60 second elongation step at 72° C. with Perkin Elmer 2400 themocycler. Following the final cycle, a 5 minute elongation step at 72° C. was performed. Aliquots of the PCR product were electrophoresed on 2.5% agarose gels (Life Technologies, Inc.), and PCR fragments were visualized with ethidium bromide staining, quantified by scanning densitometry, and expressed as folds increase after normalization to β-actin gene expression.
Induction of QR mRNA in Hepa 1c1c7 Cells. […] EHPA 1c1c7 cells were treated with 4'-BF (10 μM) or DMSO (solvent control) for 2, 4, 8, 16, 24, or 48 hours. […] Dose-dependent effects of 4'-BF were analyzed at the time of maximum induction (24 hours), and QR mRNA expression was induced in the concentration range of 0.8-50 μM. In particular, FIG. 2 illustrates RT-PCR analysis of QR mRNA levels in Hepa 1c1c7 cells after treatment with 4'-BF. In FIG. 2(A), Hepa 1c1c7 cells were treated with the indicated concentrations of 4'-BF for 24 hours. In FIG. 2(B), Hepa 1c1c7 cells were treated with 10 μM 4'-BF for the indicated periods of time. Reverse transcription was carried out by SuperScript II reverse transcriptase (Life Technologies, Inc.) and oligo(dT)16. The cDNA was amplified with Advantage Klen Taq polymerase (Clontech) by using QR primers and β-acrin (internal control), aliquots of the PCR product were electrophoresed on 2.5% agarose gels (Bio-Rad), and PCR fragments were visualized with ethidium bromide staining.

O=c1cc(-c2ccc(Br)cc2)oc2ccccc12 [4'-Bromoflavone]
tumor multiplicity (FIG. 9) ([1]; 2000 mg/kg diet): 0.65 tumors/rat | mammary tumor multiplicity ([1]; 2000 mg/kg diet): 0.20 | mammary tumor incidence ([1]; 2000 mg/kg diet): 25% | tumor incidence (FIG. 9) ([1]; 2000 mg/kg diet): 30% | tumor multiplicity (FIG. 9) ([1]; 4000 mg/kg diet): 0.20 tumors/rat | mammary tumor multiplicity ([1]; 4000 mg/kg diet): 0.15 | mammary tumor incidence ([1]; 4000 mg/kg diet): 15% | tumor incidence (FIG. 9) ([1]; 4000 mg/kg diet): 20% | tumor latency ([1]; 2000 or 4000 mg/kg diet, listed as 4'-BF): enhanced greatly; also recorded: greatly increased the tumor latency (P<0.001); also recorded: significantly increased (P<0.01) | incidence and multiplicity of mammary tumors ([1]; DMBA-induced): significantly inhibited | cytochrome P4501A1 activity vs control (basal diet) (cytochrome P4501A1; liver and mammary gland, each treatment regimen): significantly induced | DMBA-induced cytochrome P4501A1 activity (cytochrome P4501A1; liver or mammary gland, in addition to DMBA): did not significantly alter | GSH (Treated/Control), Liver (glutathione (GSH); liver): 2.11 | GSH (Treated/Control), Mammary Gland (glutathione (GSH); mammary gland): 1.77 | QR mRNA levels ([2]; 0-50 μM for 24 h): significantly increased by 4'-BF at various concentrations | QR mRNA, time course from 8 to 24 hours ([2]; 10 μM): no significant differences from 8 to 24 hours | incubation time after which QR mRNA increased ([2]; 10 μM): 8 h | time of maximum QR mRNA induction ([2]; 10 μM): 24 h | concentration range of QR mRNA induction ([2]; 24 h): 0.8 to 50 µM
